Laboratory results reported in US20050203191A1, “1-Aminocyclohexane derivatives for the treatment of agitation and other behavioral disorders, especially those associated with alzheimer's disease” (priority 2004, published 2005).

System: patients with moderate-to-severe AD
Test: MD-01: 24-week trial of memantine as monotherapy
Assay type: in vivo, human
Details: MD-01, week 24, ITT LOCF
Method: MD-01: MD-01 was a trial evaluating memantine as monotherapy for the treatment of patients with moderate-to-severe AD lasting for 24 weeks. About 350 patients were enrolled. Efficacy was evaluated using the Severe Impairment Battery (SIB), the Assessment of Daily Living (ADL) and the CIBIC-plus Scales.
The five memantine trials were evaluated using an analysis of patient for a population having an NPI agitation subscale score of >4 ([…]) and for a population having an NPI score of <4 ([…]). For each NPI population, changes in SIB, ADAS-cog and/or ADL were calculated using the least square (LS) mean difference for memantine and placebo-treated patients. Similarly, for each NPI population, the raw mean difference between memantine and placebo was calculated for the CIBIC-plus results.
For primary efficacy measurements the comparison between memantine and placebo was performed using two-way analysis of covariance (ANCOVA) with treatment group and center as the two factors, and the baseline scores as covariate. Both the LOCF imputation approach and the OC approach are performed at the end of the trials.
For secondary efficacy measurements, the comparison between memantine and placebo was performed using two-way analysis of covariance (ANCOVA) with treatment group and center as the two main effects, and the baseline scores as covariate. Descriptive statistics were calculated by Visit. Again, all analyses were performed using both the LOCF imputation approach and the OC approach.
Results of ANCOVA were summarized using least square (LS) means for each treatment group with corresponding standard error (SE), the between-treatment (2-24 week) difference in the least square means with corresponding 95% confidence interval, and the between-treatment p-value corresponds to the SAS Type III sum of squares.
In data Tables 5-19, the Overall Memantine versus Placebo columns of studies MD-01, MD-02, MD-10 and MD-12 used an ANCOVA model with baseline total score as covariate, treatment and study center as factors for SIB, ADL or ADAS-cog; CMH test controlling for study center for CIBIC-Plus. For MZ-9605, results are based on arithmetic means and the Wilcoxon-Mann-Whitney test. The Agitation score columns/NPI/antipsychotics columns, except CIBIS-Plus, calculated the p-values and LS mean differences within the subgroups from an ANCOVA model with baseline total score as covariate, subgroup (yes/no), treatment, and treatment by subgroup interactions as factors. For CIBIS-Plus, the p-values and raw mean differences within a subgroup were calculated using the CMH test controlling for study center.
Patients in the same five trials described above were stratified into two sub-groups in a second analysis, those with an NPI total score in the top quartile (≧75%), or those more severely impaired at baseline, and those with an NPI total score <75%, or less severe impairment at baseline. Similar to as in Example 1, results were evaluated using the change in SIB (cognitive endpoint), and change in ADCS-ADL (functional endpoint), using the LS mean. The change in the CIBIC-plus (global endpoint) was assessed using the raw mean.
A sub-population of patients from the five trials, MD-01, MD-02, MD-10, MD-12, and MZ-9605, were concurrently taking antipsychotics.

[1] = NPI total score ≧=75% (top quartile)
[2] = antipsychotics usage “YES” (N = n)
[3] = antipsychotics usage “YES” (N = y)
[4] = baseline NPI agitation score <4
[5] = baseline NPI agitation score ≧=4
[6] = baseline NPI agitation score ≧=4, listed as MEM

With `CC12CC3CC(C)(C1)CC(N)(C3)C2` [memantine, 1-amino-3,5-dimethyl adamantane] the “ADCS-ADL (change) LS Mean Diff., MEM v. PLA” value (NPI total score <75%) was 0.87, the “ADCS-ADL (change) mean” value (NPI total score <75%) was −1.1 and the “CIBIC-PLUS Raw Mean Diff., MEM v. PLA” value (NPI total score <75%) was −0.2. The CIBIC-PLUS mean (NPI total score <75%) was 4.3, the “SIB (change) LS Mean Diff., MEM v. PLA” value (NPI total score <75%) was 0.3 and the “SIB (change) mean” value (NPI total score <75%) was −1.2. The “ADCS-ADL (change) LS Mean Diff., MEM v. PLA” value [1] was −0.05, the “ADCS-ADL (change) mean” value [1] was −2.3 and the “CIBIC-PLUS Raw Mean Diff., MEM v. PLA” value [1] was −0.2. For the same compound, the CIBIC-PLUS mean [1] was 4.5, the “SIB (change) LS Mean Diff., MEM v. PLA” value [1] was 3.5 and the “SIB (change) mean” value [1] was −2.8. The “ADCS-ADL (change) LS Mean Diff., MEM v. PLA” value [2] was 0.8, the “ADCS-ADL (change) mean” value [2] was −0.8 and the “CIBIC-PLUS Raw Mean Diff., MEM v. PLA” value [2] was −0.26. The CIBIC-PLUS mean [2] was 4.26, the “SIB (change) LS Mean Diff., MEM v. PLA” value [2] was 1.7 and the “SIB (change) mean” value [2] was −0.5. The “ADCS-ADL (change) LS Mean Diff., MEM v. PLA” value [3] was −0.15, the “ADCS-ADL (change) mean” value [3] was −3.8 and the “CIBIC-PLUS Raw Mean Diff., MEM v. PLA” value [3] was −0.1. The CIBIC-PLUS mean [3] was 4.63, the “SIB (change) LS Mean Diff., MEM v. PLA” value [3] was −1.9 and the “SIB (change) mean” value [3] was −6.2. The “ADCS-ADL (change) LS Mean Diff., MEM v. PLA” value [4] was 0.36, the “ADCS-ADL (change) mean” value [4] was −1.3 and the “CIBIC-PLUS Raw Mean Diff., MEM v. PLA” value [4] was −0.2. For the same compound, the CIBIC-PLUS mean [4] was 4.3, the “SIB (change) LS Mean Diff., MEM v. PLA” value [4] was −0.15 and the “SIB (change) mean” value [4] was −1.9. The “ADCS-ADL (change) LS Mean Diff., MEM v. PLA” value [5] was 1.18, the “ADCS-ADL (change) mean” value [5] was −3.2 and the “CIBIC-PLUS Raw Mean Diff., MEM v. PLA” value [5] was 0. The CIBIC-PLUS mean [5] was 4.7, the “SIB (change) LS Mean Diff., MEM v. PLA” value [5] was 4.65 and the “SIB (change) mean” value [5] was −1.0. The “ADCS-ADL (change) mean” value [6] was −2.2, the “CIBIC-PLUS Raw Mean Diff., MEM v. PLA” value [6] was 0.0 and the “ADCS-ADL (change) LS Mean Diff., MEM v. PLA” value (overall) was 0.70. The “ADCS-ADL (change) LS mean” value (overall) was −2.00, the “CIBIC-PLUS LS mean” value (overall) was 4.30 and the “CIBIC-PLUS Raw Mean Diff., MEM v. PLA” value (overall) was −0.30. For the same compound, the “SIB (change) LS Mean Diff., MEM v. PLA” value (overall) was 0.60 and the “SIB (change) LS mean” value (overall) was −2.00.
